Data on 39 compounds can be found in the PolyMetriX glass transition set.

SMILES strings stand for the structures.

Consider `*/C=C/c1c(OC(=O)c2ccc(C(=O)Oc3ccc4ccccc4c3/C=C/c3cccc(*)n3)cc2)ccc2ccccc12` (repeat unit), for which the glass transition temperature came to 145.00 °C.

`*C(=O)Nc1cccc(Oc2cccc(Oc3cccc(NC(=O)c4ccc5c(c4)C(=O)N(c4cccc(Oc6cccc(Oc7cccc(N8C(=O)c9ccc(*)cc9C8=O)c7)c6C#N)c4)C5=O)c3)c2C#N)c1` (repeat unit) displayed a glass transition temperature of 214.00 °C.

Turning to `*C(=O)c1ccc2c(c1)C(=O)N(c1c(-c3ccccc3)cc(-c3ccc(-c4cc(-c5ccccc5)c(N5C(=O)c6ccc(*)cc6C5=O)c(-c5ccccc5)c4)cc3)cc1-c1ccccc1)C2=O` (repeat unit), the glass transition temperature turned out to be 265.00 °C.

For the compound `*C(=O)c1ccc2c(c1)C(=O)N(c1cc(N3C(=O)c4ccc(*)cc4C3=O)c(O)cc1O)C2=O` (repeat unit), the glass transition temperature was 324.00 °C.

Compound `*CCOC(=O)c1ccc(/C(C#N)=C(\c2ccc(OC)cc2)N2CCC(*)CC2)cc1` (repeat unit) displayed a glass transition temperature of 167.00 °C.

`*Oc1ccc2cc(OC(=O)c3ccc(-c4ccc(C(*)=O)cc4)cc3-c3ccccc3)ccc2c1` (repeat unit): the glass transition temperature came to 125.00 °C.

`*Oc1cccc(C(F)(F)C(F)(F)C(F)(F)c2cccc(OC(*)=O)c2)c1` (repeat unit) registered a glass transition temperature of 46.00 °C.

On to `*Oc1cccc(OC(=O)c2ccc(OC(=O)c3cccc(C(=O)Oc4ccc(C(*)=O)cc4)c3)cc2)c1` (repeat unit), for which the glass transition temperature turned out to be 158.00 °C.

`*Oc1cccc(OC2(F)C(*)(F)C(F)(F)C2(F)F)c1` (repeat unit) returned a glass transition temperature of 32.00 °C.

Take `*Oc1cccc(Oc2ccc(C(=O)O)c(C(=O)Nc3ccc(Oc4ccc(-c5ccc(Oc6ccc(NC(=O)c7cc(*)ccc7C(=O)O)cc6)cc5)cc4)cc3)c2)c1` (repeat unit): the glass transition temperature amounted to 100.00 °C.

As for `*Oc1cccc(Oc2ccc(C(=O)Oc3cccc(OC(=O)c4ccc(*)cc4)c3)cc2)c1` (repeat unit), the glass transition temperature amounted to 131.00 °C.

`*Oc1cccc(Oc2ccc3c(=O)n4c5cc(Oc6ccc7c(c6)nc6c8ccc(*)c9cccc(c(=O)n76)c98)ccc5nc4c4cccc2c34)c1` (repeat unit) returned a glass transition temperature of 369.50 °C.

Turning to `*Oc1cccc(Oc2cccc(*)n2)c1` (repeat unit), the glass transition temperature was 82.00 °C.

Take `*Oc1cccc2c(OC(=O)c3ccc(Oc4ccc(C(*)=O)cc4)cc3)cccc12` (repeat unit): the glass transition temperature stood at 171.00 °C.

Regarding `*Oc1cccc2c(OC3(F)C(*)(F)C(F)(F)C3(F)F)cccc12` (repeat unit), the glass transition temperature amounted to 138.00 °C.

`*c1cc(N2C(=O)c3ccc(Oc4ccc5ccc(Oc6ccc7c(c6)C(=O)N(*)C7=O)cc5c4)cc3C2=O)cc(C(F)(F)F)c1` (repeat unit) registered a glass transition temperature of 235.00 °C.

On to `*c1ccc(-c2nc3cc(Oc4ccc5nc(*)c(-c6ccccc6)nc5c4)ccc3nc2-c2ccccc2)cc1` (repeat unit), for which the glass transition temperature stood at 326.00 °C.

Take `*c1ccc(-c2nc3ccc(Oc4ccc5nc(*)c(-c6ccccc6)nc5c4)cc3nc2-c2ccccc2)cc1` (repeat unit): the glass transition temperature was determined as 304.00 °C.

`*c1ccc(C(=O)Oc2ccc3ccc(OC(=O)c4ccc(N5C(=O)CC(SCCOCCSC6CC(=O)N(*)C6=O)C5=O)cc4)cc3c2)cc1` (repeat unit) registered a glass transition temperature of 160.00 °C.

`*c1ccc(C(c2ccc(N3C(=O)c4ccc(Oc5ccc6cc(Oc7ccc8c(c7)C(=O)N(*)C8=O)ccc6c5)cc4C3=O)cc2)(C(F)(F)F)C(F)(F)F)cc1` (repeat unit) yielded a glass transition temperature of 218.00 °C.

With `*c1ccc(C(c2ccccc2)(c2ccc(N3C(=O)c4ccc(Oc5ccc6c(c5)C(=O)N(*)C6=O)cc4C3=O)cc2)C(F)(F)F)cc1` (repeat unit), the glass transition temperature stood at 293.00 °C.

Take `*c1ccc(C(c2ccccc2)c2ccc(N3C(=O)c4ccc(Oc5ccc6c(c5)C(=O)N(*)C6=O)cc4C3=O)cc2)cc1` (repeat unit): the glass transition temperature came to 269.00 °C.

The compound `*c1ccc(Cc2ccc(N3C(=O)c4ccc(Oc5ccc6c(c5)C(=O)N(*)C6=O)cc4C3=O)cc2)cc1` (repeat unit) registered a glass transition temperature of 271.00 °C.

As to `*c1ccc(Oc2cc3ccccc3cc2Oc2ccc(N3C(=O)c4ccc(Oc5ccc6c(c5)C(=O)N(*)C6=O)cc4C3=O)cc2)cc1` (repeat unit), the glass transition temperature was determined as 275.50 °C.

In turn, `*c1ccc(Oc2ccc(-c3ccc(Oc4ccc(N5C(=O)c6ccc(Oc7ccc8ccc(Oc9ccc%10c(c9)C(=O)N(*)C%10=O)cc8c7)cc6C5=O)cc4)cc3)cc2)cc1` (repeat unit) came in with a glass transition temperature of 231.00 °C.

In the case of `*c1ccc(Oc2ccc(-c3nc4cc(Oc5ccc6nc(*)c(-c7ccccc7)nc6c5)ccc4nc3-c3ccccc3)cc2)cc1` (repeat unit), the glass transition temperature worked out at 243.00 °C.

Consider `*c1ccc(Oc2ccc(-c3nc4cc(Oc5ccc6nc(-c7ccccc7)c(*)nc6c5)ccc4nc3-c3ccccc3)cc2)cc1` (repeat unit), for which the glass transition temperature came out at 263.00 °C.

For `*c1ccc(Oc2ccc(-c3nc4ccc(Oc5ccc6nc(*)c(-c7ccccc7)nc6c5)cc4nc3-c3ccccc3)cc2)cc1` (repeat unit), the glass transition temperature amounted to 437.00 °C.

For `*c1ccc(Oc2ccc(N3C(=O)c4ccc(Oc5cccc(Oc6ccc7c(c6)C(=O)N(*)C7=O)c5)cc4C3=O)cc2)cc1` (repeat unit), the glass transition temperature was 209.00 °C.

The compound `*c1ccc(Oc2cccc(Oc3ccc(N4C(=O)c5ccc(Oc6cccc(Oc7ccc8c(c7)C(=O)N(*)C8=O)c6)cc5C4=O)cc3)c2)cc1` (repeat unit) yielded a glass transition temperature of 188.00 °C.

The compound `*c1ccc(Oc2ccccc2N2C(=O)c3ccc(Oc4ccc5c(c4)C(=O)N(*)C5=O)cc3C2=O)cc1` (repeat unit) returned a glass transition temperature of 264.00 °C.

As to `*c1ccc(Oc2ccccc2Oc2ccc(N3C(=O)c4ccc(Oc5ccc6c(c5)C(=O)N(*)C6=O)cc4C3=O)cc2C(F)(F)F)c(C(F)(F)F)c1` (repeat unit), the glass transition temperature turned out to be 223.00 °C.

`*c1ccc2cc(OC(=O)c3cccc(C(=O)Oc4ccc5cc(-c6nc7ccccc7nc6*)ccc5c4)c3)ccc2c1` (repeat unit): the glass transition temperature is 151.00 °C.

As for `*c1cccc(-c2nc3ccc(Oc4ccc5nc(*)c(-c6ccccc6)nc5c4)cc3nc2-c2ccccc2)c1` (repeat unit), the glass transition temperature turned out to be 270.00 °C.

Regarding `*c1cccc(C(c2ccccc2)(c2cccc(N3C(=O)c4ccc(Oc5ccc6c(c5)C(=O)N(*)C6=O)cc4C3=O)c2)C(F)(F)F)c1` (repeat unit), the glass transition temperature was 293.00 °C.

`*c1cccc(N2C(=O)c3ccc(Oc4ccc5ccc(Oc6ccc7c(c6)C(=O)N(*)C7=O)cc5c4)cc3C2=O)c1` (repeat unit) showed a glass transition temperature of 254.00 °C.

The compound `*c1cccc(N2C(=O)c3ccc(Oc4cccc(Oc5ccc6c(c5)C(=O)N(*)C6=O)c4)cc3C2=O)c1` (repeat unit) came in with a glass transition temperature of 224.00 °C.

As for `*c1cccc(N2C(=O)c3cccc(Oc4cccc(Oc5cccc6c5C(=O)N(*)C6=O)c4)c3C2=O)c1` (repeat unit), the glass transition temperature came to 241.00 °C.

The compound `*c1cccc(Oc2ccc(Oc3cccc(N4C(=O)c5ccc(Oc6ccc7c(c6)C(=O)N(*)C7=O)cc5C4=O)c3)cc2)c1` (repeat unit) displayed a glass transition temperature of 204.00 °C.
